Consider five compounds from US20180044305A1, “3-SUBSTITUTED 1,3,4-OXADIAZOLE AND THIADIAZOLE COMPOUNDS AS IMMUNOMODULATORS” (AURIGENE DISCOVERY TECHNOLOGIES LIMITED, priority 2015, published 2018).

The target in this test is T1, Recombinant mouse PD-L1 (Mus musculus, UniProt Q9EP73).
T1 construct: Fc (Fc chimera); purchased R&D Systems 1019-B7-100
Briefly: Rescue of mouse splenocyte proliferation in the presence of recombinant PD-L1 (CFSE proliferation assay). The class given is cell-based. The conditions noted are these: compound at 100 nM; CFSE-labelled mouse splenocytes + anti-CD3/CD28 + PD-L1, 72 h; normalised to stimulated splenocyte proliferation as 100%. How it is done: Example 3: Rescue of Mouse Splenocyte Proliferation in the Presence of Recombinant PD-L1
Recombinant mouse PD-L1 (rm-PDL-1, cat no: 1019-B7-100; R&D Systems) were used as the source of PD-L1.
Mouse splenocytes harvested from 6-8 weeks old C57 BL6 mice; RPMI 1640 (GIBCO, Cat #11875); DMEM with high glucose (GIBCO, Cat #D6429); Fetal Bovine Serum [Hyclone, Cat #SH30071.03]; Penicillin (10000 unit/mL)-Streptomycin(10,000 μg/mL) Liquid (GIBCO, Cat #15140-122); MEM Sodium Pyruvate solution 100 mM (100×), Liquid (GIBCO, Cat #11360); Nonessential amino acid (GIBCO, Cat #11140); L-Glutamine (GIBCO, Cat #25030); Anti-CD3 antibody (eBiosciences—16-0032); Anti-CD28 antibody (eBiosciences—16-0281); ACK lysis buffer (1 mL) (GIBCO, Cat #-A10492); Histopaque (density—1.083 gm/mL) (SIGMA 10831); Trypan blue solution (SIGMA-T8154); 2 mL Norm Ject Luer Lock syringe-(Sigma 2014-12); 40 µm nylon cell strainer (BD FALCON 35230); Hemacytometer (Bright line-SIGMA Z359629); FACS Buffer (PBS/0.1% BSA): Phosphate Buffered Saline (PBS) pH 7.2 (HiMedia TS1006) with 0.1% Bovine Serum Albumin (BSA) (SIGMA A7050) and sodium azide (SIGMA 08591); 5 mM stock solution of CFSE: CFSE stock solution was prepared by diluting lyophilized CFSE with […] of Dimethyl sulfoxide (DMSO C2H6SO, SIGMA-D-5879) and aliquoted in to tubes for further use. Working concentrations were titrated from […] to 1 μM. (eBioscience—650850-85); 0.05% Trypsin and 0.02% EDTA (SIGMA 59417C); 96-well format ELISA plates (Corning CLS3390); BD FACS caliber (E6016); Recombinant mouse B7-H1/PDL1 Fc Chimera, (rm-PD-L1 cat no: 1019-B7-100).
Splenocytes harvested in a 50 mL falcon tube by mashing mouse spleen in a 40 µm cell strainer were further treated with 1 mL ACK lysis buffer for 5 min at room temperature. After washing with 9 mL of RPMI complete media, cells were re-suspended in 3 mL of 1×PBS in a 15 mL tube. 3 mL of Histopaque was added carefully to the bottom of the tube without disturbing overlaying splenocyte suspension. After centrifuging at 800×g for 20 min at room temperature, the opaque layer of splenocytes was collected carefully without disturbing/mixing the layers. Splenocytes were washed twice with cold 1×PBS followed by total cell counting using Trypan Blue exclusion method and used further for cell based assays.
Splenocytes were cultured in RPMI complete media (RPMI+10% fetal bovine serum+1 mM sodium pyruvate+10,000 units/mL penicillin and […] streptomycin) and maintained in a CO2 incubator with 5% CO2 at 37° C.
CFSE is a dye that passively diffuses into cells and binds to intracellular proteins. 1×10^6 cells/mL of harvested splenocytes were treated with […] of CFSE in pre-warmed 1×PBS/0.1% BSA solution for 10 min at 37° C. Excess CFSE was quenched using 5 volumes of ice-cold culture media to the cells and incubated on ice for 5 min. CFSE labelled splenocytes were further given three washes with ice cold complete RPMI media. […] Cells were harvested and washed thrice with ice cold FACS buffer and % proliferation was analysed by flow cytometry with 488 nm excitation and 521 nm emission filters.
Percent splenocyte proliferation was analysed using cell quest FACS program and percent rescue of splenocyte proliferation by compound was estimated after deduction of % background proliferation value and normalising to % stimulated splenocyte proliferation (positive control) as 100%. […]

T1 sequence (Q9EP73 with tags, fused parts or gaps limits assumed): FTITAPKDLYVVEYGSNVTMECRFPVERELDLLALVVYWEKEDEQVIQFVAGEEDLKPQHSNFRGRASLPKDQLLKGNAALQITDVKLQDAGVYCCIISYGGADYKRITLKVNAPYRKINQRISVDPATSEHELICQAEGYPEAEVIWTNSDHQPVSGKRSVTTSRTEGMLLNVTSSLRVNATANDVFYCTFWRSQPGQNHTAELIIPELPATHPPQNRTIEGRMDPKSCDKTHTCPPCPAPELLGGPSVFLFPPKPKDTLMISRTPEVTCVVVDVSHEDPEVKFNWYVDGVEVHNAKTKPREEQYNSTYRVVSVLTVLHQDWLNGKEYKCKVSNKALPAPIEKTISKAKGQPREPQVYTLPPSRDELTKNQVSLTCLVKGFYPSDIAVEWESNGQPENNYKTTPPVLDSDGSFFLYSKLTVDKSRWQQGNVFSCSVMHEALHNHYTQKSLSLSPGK

With `COc1ccccc1-c1nnc([C@H](CC(N)=O)NC(=O)N[C@@H](CCSC)C(=O)O)o1` [Compound 12], the “Percent rescue of splenocyte proliferation (@100 nM)” value (from here on “Percent rescue”) was found to be 15%. Next, `COc1ccccc1-c1nnc([C@H](CC(N)=O)NC(=O)N[C@@H](CCCCN)C(=O)O)o1` [Compound 11]: 60%; `CC(O)[C@H](NC(=O)N[C@H](c1nnc(-c2ccco2)o1)C(C)C)C(=O)O` (some centres unmarked) [Compound 7]: 28%. As to `COc1ccccc1-c1nnc([C@H](CC(N)=O)NC(=O)N[C@H](C(=O)O)C(C)O)o1` (some centres unmarked) [Compound 16], the “Percent rescue” value turned out to be 7%.

Turning to `CC(O)[C@H](NC(=O)N[C@@H](CC(N)=O)c1nnc(-c2cnccn2)o1)C(=O)O` (some centres unmarked) [Compound 13], the “Percent rescue” value was 63%.
